Measured values taken from PubChem BioAssay AID1963871 (Molecular Pharmacology Branch, DTP, NCI, 2024).

System: KRAS-mutant PDC multicell tumor spheroid viability
Assay: Anticancer human tumor 521955-158-R2-J5-PDC patient-derived pancreatic carcinoma cell line growth inhibition [KRAS2]
Conditions: for IC50: curve of first compound; for viability, T/C: stronger effect = lower value
In short: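 Combination screen of spheroid viability in tumor-cell co-cultures with endothelial (HUVEC) and mesenchymal stem cell stroma. Each agent was tested in half-log dilutions, topping at clinical Cmax or at 10 microM without a known Cmax.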

[1] = second compound 0.1 µM, first compound 0.000316 µM
[2] = second compound 0.1 µM, first compound 0.001 µM
[3] = second compound 0.1 µM, first compound 0.00316 µM
[4] = second compound 0.1 µM, first compound 0.01 µM
[5] = second compound 0.1 µM, first compound 0.0316 µM
[6] = second compound 0.1 µM, first compound 0.1 µM
[7] = second compound 0.316 µM, first compound 0.000316 µM
[8] = second compound 0.316 µM, first compound 0.001 µM
[9] = second compound 0.316 µM, first compound 0.00316 µM
[10] = second compound 0.316 µM, first compound 0.01 µM
[11] = second compound 0.316 µM, first compound 0.0316 µM
[12] = second compound 0.316 µM, first compound 0.1 µM
[13] = second compound 1 µM, first compound 0.000316 µM
[14] = second compound 1 µM, first compound 0.001 µM
[15] = second compound 1 µM, first compound 0.00316 µM
[16] = second compound 1 µM, first compound 0.01 µM
[17] = second compound 1 µM, first compound 0.0316 µM
[18] = second compound 1 µM, first compound 0.1 µM
[19] = second compound 3.16 µM, first compound 0.000316 µM
[20] = second compound 3.16 µM, first compound 0.001 µM
[21] = second compound 3.16 µM, first compound 0.00316 µM
[22] = second compound 3.16 µM, first compound 0.01 µM
[23] = second compound 3.16 µM, first compound 0.0316 µM
[24] = second compound 3.16 µM, first compound 0.1 µM
[25] = second compound 10 µM, first compound 0.000316 µM
[26] = second compound 10 µM, first compound 0.001 µM
[27] = second compound 10 µM, first compound 0.00316 µM
[28] = second compound 10 µM, first compound 0.01 µM
[29] = second compound 10 µM, first compound 0.0316 µM
[30] = second compound 10 µM, first compound 0.1 µM
[31] = second compound 0.1 µM, first compound 0.316 µM
[32] = second compound 0.1 µM, first compound 1 µM
[33] = second compound 0.1 µM, first compound 3.16 µM
[34] = second compound 0.1 µM, first compound 10 µM
[35] = second compound 0.316 µM, first compound 0.316 µM
[36] = second compound 0.316 µM, first compound 1 µM
[37] = second compound 0.316 µM, first compound 3.16 µM
[38] = second compound 0.316 µM, first compound 10 µM
[39] = second compound 1 µM, first compound 0.316 µM
[40] = second compound 1 µM, first compound 1 µM
[41] = second compound 1 µM, first compound 3.16 µM
[42] = second compound 1 µM, first compound 10 µM
[43] = second compound 3.16 µM, first compound 0.316 µM
[44] = second compound 3.16 µM, first compound 1 µM
[45] = second compound 3.16 µM, first compound 3.16 µM
[46] = second compound 3.16 µM, first compound 10 µM
[47] = second compound 10 µM, first compound 0.316 µM
[48] = second compound 10 µM, first compound 1 µM
[49] = second compound 10 µM, first compound 3.16 µM
[50] = second compound 10 µM, first compound 10 µM
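Also: viability read after seven days of drug exposure.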

For `CC(C)n1nc(-c2ccc3oc(N)nc3c2)c2c(N)ncnc21` + COc1cc2nc(C)nc(NC(C)c3cc(N)cc(C(F)(F)F)c3)c2cc1OC1CCOC1, the IC50 (second compound 0.1 µM) was 0.00915 µM, the IC50 (second compound 0.316 µM) was 0.00773 µM and the IC50 (second compound 1 µM) was 0.00655 µM. It also gave an IC50 (second compound 3.16 µM) of 0.00441 µM, an IC50 (second compound 10 µM) of 0.000453 µM and a viability, T/C [1] of 61.5%. It also gave a viability, T/C [2] of 83.8%, a viability, T/C [3] of 64.1% and a viability, T/C [4] of 48.5%. The viability, T/C [5] was 32.6%, the viability, T/C [6] was 26% and the viability, T/C [7] was 90.1%. It also gave a viability, T/C [8] of 83.9%, a viability, T/C [9] of 65.4% and a viability, T/C [10] of 44.8%. For the same compound, the viability, T/C [11] was 33.7%, the viability, T/C [12] was 25.6% and the viability, T/C [13] was 81%. The viability, T/C [14] was 77.1%, the viability, T/C [15] was 57.1% and the viability, T/C [16] was 46.8%. The viability, T/C [17] was 29.6%, the viability, T/C [18] was 25.1% and the viability, T/C [19] was 84.2%. It also gave a viability, T/C [20] of 80.6%, a viability, T/C [21] of 53.7% and a viability, T/C [22] of 35.8%. The viability, T/C [23] was 27.4%, the viability, T/C [24] was 20.2% and the viability, T/C [25] was 56.9%. For the same compound, the viability, T/C [26] was 32.4%, the viability, T/C [27] was 34.7% and the viability, T/C [28] was 26.1%. For the same compound, the viability, T/C [29] was 21.6% and the viability, T/C [30] was 19%.
`CC1(C)CCC(CN2CCN(c3ccc(C(=O)NS(=O)(=O)c4ccc(NCC5CCOCC5)c([N+](=O)[O-])c4)c(Oc4cnc5[nH]ccc5c4)c3)CC2)=C(c2ccc(Cl)cc2)C1` + COc1cc2nc(C)nc(NC(C)c3cc(N)cc(C(F)(F)F)c3)c2cc1OC1CCOC1 showed an IC50 (second compound 0.1 µM) of 6.34 µM, an IC50 (second compound 0.316 µM) of 5.02 µM and an IC50 (second compound 1 µM) of 3.65 µM. For the same compound, the IC50 (second compound 3.16 µM) was 2 µM, the IC50 (second compound 10 µM) was 0.391 µM and the viability, T/C [5] was 74.8%. The viability, T/C [6] was 82.6%, the viability, T/C [31] was 92.4% and the viability, T/C [32] was 93.3%. The viability, T/C [33] was 82.9%, the viability, T/C [34] was 28.2% and the viability, T/C [11] was 74.5%. The viability, T/C [12] was 82.8%, the viability, T/C [35] was 86% and the viability, T/C [36] was 80.5%. For the same compound, the viability, T/C [37] was 70.9%, the viability, T/C [38] was 18.8% and the viability, T/C [17] was 71.9%. It also gave a viability, T/C [18] of 78.2%, a viability, T/C [39] of 82.6% and a viability, T/C [40] of 81.3%. It also gave a viability, T/C [41] of 55.7%, a viability, T/C [42] of 10.8% and a viability, T/C [23] of 81%. The viability, T/C [24] was 82.4%, the viability, T/C [43] was 86.1% and the viability, T/C [44] was 80%. The viability, T/C [45] was 30.2%, the viability, T/C [46] was 12.2% and the viability, T/C [29] was 55.7%. It also gave a viability, T/C [30] of 52.6%, a viability, T/C [47] of 51.3% and a viability, T/C [48] of 36.8%. It also gave a viability, T/C [49] of 2.22% and a viability, T/C [50] of 1.29%.
`COc1cc2nccc(Oc3ccc(NC(=O)C4(C(=O)Nc5ccc(F)cc5)CC4)cc3)c2cc1OC` + COc1cc2nc(C)nc(NC(C)c3cc(N)cc(C(F)(F)F)c3)c2cc1OC1CCOC1 gave an IC50 (second compound 0.1 µM) of 7.43 µM, an IC50 (second compound 0.316 µM) of 7.59 µM and an IC50 (second compound 1 µM) of 5.58 µM. It also gave an IC50 (second compound 3.16 µM) of 3.27 µM, an IC50 (second compound 10 µM) of 1.47 µM and a viability, T/C [5] of 93.7%. It also gave a viability, T/C [6] of 99.6%, a viability, T/C [31] of 88.6% and a viability, T/C [32] of 95.1%. It also gave a viability, T/C [33] of 85.6%, a viability, T/C [34] of 37.4% and a viability, T/C [11] of 99.7%. For the same compound, the viability, T/C [12] was 98.1%, the viability, T/C [35] was 88.6% and the viability, T/C [36] was 88.9%. It also gave a viability, T/C [37] of 83.6%, a viability, T/C [38] of 39.5% and a viability, T/C [17] of 89%. It also gave a viability, T/C [18] of 96.1%, a viability, T/C [39] of 96.6% and a viability, T/C [40] of 90.1%. It also gave a viability, T/C [41] of 72%, a viability, T/C [42] of 27.5% and a viability, T/C [23] of 100%. It also gave a viability, T/C [24] of 96.8%, a viability, T/C [43] of 101% and a viability, T/C [44] of 105%. The viability, T/C [45] was 51.2%, the viability, T/C [46] was 6.41% and the viability, T/C [29] was 93.4%. The viability, T/C [30] was 73.2%, the viability, T/C [47] was 67% and the viability, T/C [48] was 74.8%. For the same compound, the viability, T/C [49] was 0.78% and the viability, T/C [50] was 0.24%.
`Cn1ncnc1[C@H]1c2n[nH]c(=O)c3cc(F)cc(c23)N[C@@H]1c1ccc(F)cc1` + COc1cc2nc(C)nc(NC(C)c3cc(N)cc(C(F)(F)F)c3)c2cc1OC1CCOC1 was tested, and the IC50 (second compound 0.1 µM) was over 0.1 µM, the IC50 (second compound 0.316 µM) was over 0.1 µM and the IC50 (second compound 1 µM) was over 0.1 µM. For the same compound, the IC50 (second compound 3.16 µM) was over 0.1 µM, the IC50 (second compound 10 µM) was over 0.1 µM and the viability, T/C [1] was 80.6%. The viability, T/C [2] was 78.6%, the viability, T/C [3] was 85.2% and the viability, T/C [4] was 67.1%. It also gave a viability, T/C [5] of 70.3%, a viability, T/C [6] of 66.2% and a viability, T/C [7] of 81.2%. For the same compound, the viability, T/C [8] was 90.5%, the viability, T/C [9] was 85.3% and the viability, T/C [10] was 63.2%. It also gave a viability, T/C [11] of 67.4%, a viability, T/C [12] of 65.2% and a viability, T/C [13] of 86%. For the same compound, the viability, T/C [14] was 88.1%, the viability, T/C [15] was 84% and the viability, T/C [16] was 75.1%. It also gave a viability, T/C [17] of 69.3%, a viability, T/C [18] of 71.1% and a viability, T/C [19] of 94.2%. The viability, T/C [20] was 94.6%, the viability, T/C [21] was 88.7% and the viability, T/C [22] was 81.2%. It also gave a viability, T/C [23] of 77.8%, a viability, T/C [24] of 70.3% and a viability, T/C [25] of 84.7%. For the same compound, the viability, T/C [26] was 70.5%, the viability, T/C [27] was 75.3% and the viability, T/C [28] was 67.9%. The viability, T/C [29] was 57.6% and the viability, T/C [30] was 55%.
